Assay in all cases: NCI tumour cell line growth inhibition, 48 h
Test [1] deals with CCRF-CEM.
The test system of test [2] is HOP-62.
For test [3], the system named is A549.
Test [4] has as its system SW-620.
For test [5], the system named is U-251.
Test [6] concerns K562.
For test [7], the system named is HT-29.
The test system of test [8] is HOP-92.
The subject of test [9] is M14.
Test [10] relates to SF-268.
For test [11], the system named is ACHN.
Test [12] has as its system OVCAR-8.
Test [13] concerns HL-60.
For test [14], the system named is KM12.
Test [15] has as its system SN12C.
The subject of test [16] is Malme-3M.
Test [17] has as its system HCT-15.
Test [18] relates to HCC 2998.

The values below come from ChEMBL document CHEMBL1201862, “PubChem BioAssay data set” (2004).

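These data come from cells grown in 96-well plates and exposed to compound for 48 hours at five concentrations. Abbreviation: GI50, concentration required for 50% inhibition of growth.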 The source made the active and inactive calls. Rule as the data show it: active = GI50 up to about 1.1 µM and inactive = higher. Bounds are passed on as bounds.

For `O=C(c1ccco1)N(C(=S)N1CCN(c2ccccn2)CC1)C1CCCCC1`, the GI50 in test [1], in test [2], in test [3], in [4], in [5] and in [6] was > 100 µM (inactive) in each case. Besides, the GI50 in test [7], in test [8], in test [9], in test [10], in test [11] and in test [12] was > 100 µM (inactive) throughout. Also, the GI50 in [13] is > 100 µM (inactive); in [14], > 100 µM (inactive); in test [15], > 100 µM (inactive); in [16] it was > 100 µM (inactive); in test [17], over 100 µM.

As for `Cc1cc(NS(=O)(=O)c2ccc(Nc3c4ccccc4nc4c(C(=O)NCCN(C)C)ccc(Cl)c34)cc2)no1`, the GI50 in test [1] was 1.28 µM (inactive); in test [2], 4.57 µM (inactive); in [3] it was 3.66 µM (inactive); in [4], 1.92 µM (inactive); in [5], 2.42 µM (inactive); in [6], 2.99 µM (inactive). In addition, the GI50 was 2.86 µM (inactive) in test [7]; 5.25 µM (inactive) in test [9]; 2.15 µM (inactive) in test [10]; 2.43 µM (inactive) in [11]; 3.21 µM (inactive) in test [18]; 1.12 µM (active) in test [12]. Moreover, the GI50 in test [13] is 1.14 µM (inactive); in test [14], 4.91 µM (inactive); in test [15], 3.88 µM (inactive); in test [17] it was 5.14 µM.

Take `CCOC(=O)c1ccc(/N=C\c2ccc(N(CCC#N)CCC#N)cc2)cc1`: the GI50 in [1] was 46.9 µM (inactive); in test [2] it was 40.5 µM (inactive); in test [3], 70 µM (inactive); in [4] it was 81.5 µM (inactive); in test [6], 28.2 µM (inactive); in [7] it was > 100 µM (inactive). The GI50 in [8] was > 100 µM (inactive); in test [9], 36.5 µM (inactive); in test [10], 84.7 µM (inactive); in test [11], 43.2 µM (inactive); in test [12] it was 89.1 µM (inactive); in test [13], 80.9 µM (inactive). Also, the GI50 in [15] was > 100 µM (inactive); in test [16], > 100 µM (inactive); in test [17], 21.4 µM.

On to `CC1(C)CC(C2CC(C)(C)CC(C)(C)[C@H]2O)[C@@H](O)C(C)(C)C1` (stereo partly drawn), for which the GI50 in test [1] is > 100 µM (inactive); in test [2] it was > 10 µM (inactive); in test [3], > 100 µM (inactive); in test [4] it was > 100 µM (inactive); in test [5], > 100 µM (inactive); in test [6] it was > 100 µM (inactive). The GI50 in [7], in test [9], in [10], in test [11], in test [18] and in test [12] was > 100 µM (inactive) throughout. For the same molecule, the GI50 in test [13] was > 100 µM (inactive); in test [14] it was > 100 µM (inactive); in [15], > 100 µM (inactive); in test [16], > 100 µM (inactive); in test [17], over 100 µM.

For `CCCCCCCCCCNCCSSCc1ccc(Cl)cc1`, the GI50 in test [1] was 1.64 µM (inactive); in [3] it was 1.85 µM (inactive); in test [4], 1.6 µM (inactive); in test [5], 3.27 µM (inactive); in test [6], 1.24 µM (inactive); in [7], 1.77 µM (inactive). Also, the GI50 is 0.233 µM (active) in test [9]; 0.631 µM (active) in test [10]; 4.68 µM (inactive) in [11]; 1.89 µM (inactive) in test [18]; 2.07 µM (inactive) in [12]; 1.75 µM (inactive) in test [13]. The GI50 in test [14] is 1.36 µM (inactive); in test [15], 1.91 µM (inactive); in [16] it was 2.95 µM (inactive); in test [17], 2.48 µM.

For `CC1CCN(C(C)C)P(=S)(Cc2ccccc2)O1` (stereo not drawn), the GI50 in test [2] is > 100 µM (inactive); in test [3], > 100 µM (inactive); in test [4], 7.93 µM (inactive); in [5], > 100 µM (inactive); in [6], 70.1 µM (inactive); in test [7] it was > 100 µM (inactive). Further, the GI50 in test [9] was > 100 µM (inactive); in test [10], > 100 µM (inactive); in test [11], > 100 µM (inactive); in test [18], 83.9 µM (inactive); in test [12], > 100 µM (inactive); in test [14] it was > 100 µM (inactive). Also, the GI50 in [16] is > 100 µM (inactive); in [17], over 100 µM.

With `CC1=C(/C(C)=N/NC(=O)c2ccccc2O)C(C)C(/C(C)=N/NC(=O)c2ccccc2O)=C(C)N1`, the GI50 in test [2] is 25.1 µM (inactive); in [3], 21.5 µM (inactive); in test [4], 33.6 µM (inactive); in [5], 28.7 µM (inactive); in test [6], 16.6 µM (inactive); in [7] it was 42.3 µM (inactive). Moreover, the GI50 is 28.8 µM (inactive) in [8]; 30.2 µM (inactive) in [9]; 25.6 µM (inactive) in test [10]; 16.3 µM (inactive) in test [11]; 16.8 µM (inactive) in [12]; 5.04 µM (inactive) in test [13]. In addition, the GI50 in [14] was 31.4 µM (inactive); in [15], 45.1 µM (inactive); in test [16], 29.4 µM (inactive); in test [17], 22.8 µM.

For `NC(Cc1ccccc1)C(=O)OCN1C(=O)C2C3C=CC(C2C1=O)C1C2C(=O)N(COC(=O)C(N)Cc4ccccc4)C(=O)C2C31` (stereo not drawn), the GI50 is 21.1 µM (inactive) in test [1]; > 100 µM (inactive) in [2]; 25.9 µM (inactive) in test [3]; 19.5 µM (inactive) in test [4]; 20.7 µM (inactive) in test [5]; 25.8 µM (inactive) in test [6]. Also, the GI50 is 33.2 µM (inactive) in [7]; 32 µM (inactive) in test [8]; 20.4 µM (inactive) in test [9]; 25.9 µM (inactive) in [10]; 23.1 µM (inactive) in [11]; 23.7 µM (inactive) in [12]. For the same molecule, the GI50 in [13] was 23.7 µM (inactive); in [14] it was 21.3 µM (inactive); in test [15] it was 22.3 µM (inactive); in test [17] it was 17.8 µM.

Regarding `CCOc1ccc(NC(=O)C(=O)CC(=O)C2=C(C)Nc3ccccc3S2)cc1`, the GI50 in test [1], in [2], in [3], in test [4], in test [5] and in test [6] was > 50 µM (inactive) throughout. In addition, the GI50 in [7], in test [8], in test [9], in [10], in test [11] and in [18] was > 50 µM (inactive) each time. Also, the GI50 in test [12] is > 50 µM (inactive); in [14], > 50 µM (inactive); in test [15] it was > 50 µM (inactive); in test [16], > 50 µM (inactive); in test [17], over 50 µM.

With `CC(=O)OC1C=CC2CCN3C(=O)c4cc5c(cc4[C@H]1C23)OCO5` (stereo partly drawn), the GI50 in [1], in [2], in [3], in test [4], in test [5] and in test [6] was > 100 µM (inactive) throughout. The GI50 was > 100 µM (inactive) in test [7]; > 100 µM (inactive) in test [9]; > 100 µM (inactive) in [10]; > 100 µM (inactive) in [11]; > 10 µM (inactive) in test [18]; > 100 µM (inactive) in [12]. Moreover, the GI50 in [13] is > 100 µM (inactive); in test [14], > 100 µM (inactive); in [15], > 100 µM (inactive); in [16], > 100 µM (inactive); in test [17] it was over 100 µM.

Consider `C[N+](C)(C)CC1CCC(C[N+](C)(C)C)C1=NO` (stereo not drawn), for which the GI50 in test [1], in test [2], in test [3], in test [4], in [5] and in test [6] was > 100 µM (inactive) in each case. Besides, the GI50 in [7], in test [9], in test [10], in [11], in test [12] and in test [13] was > 100 µM (inactive) each time. Also, the GI50 in test [14] was > 100 µM (inactive); in [15] it was > 100 µM (inactive); in [16], > 100 µM (inactive); in test [17], over 100 µM.

Regarding `Cn1c(=O)nc2n(-c3cccc(Cl)c3)c3ccccc3nc-2c1=O`, the GI50 is 19 µM (inactive) in test [1]; 28.6 µM (inactive) in test [2]; 11.4 µM (inactive) in [3]; 11.2 µM (inactive) in test [4]; 15.3 µM (inactive) in test [5]; 14.1 µM (inactive) in test [6]. The GI50 was 4.53 µM (inactive) in [7]; 7.93 µM (inactive) in test [9]; 18.2 µM (inactive) in [10]; 3.63 µM (inactive) in test [11]; 10.7 µM (inactive) in [18]; 18 µM (inactive) in test [12]. Also, the GI50 in test [14] is 11.2 µM (inactive); in test [15], 12.8 µM (inactive); in [16], 3.5 µM (inactive); in [17] it was 13 µM.
